Active and inactive are the calls of the source. The rule behind the calls is not given here.
Assays:
[1] = biological target: DNA topoisomerase 2-alpha (Homo sapiens) (UniProt P11388); assay: Inhibition of human recombinant topoisomerase 2alpha-mediated pBR322 DNA relaxation at 8 uM after 60 mins by agarose gel electrophoretic analysis
[2] = biological target: DNA topoisomerase 2-alpha (Homo sapiens) (UniProt P11388); assay: Inhibition of human recombinant topoisomerase 2alpha-mediated pBR322 DNA complex formation at 8 uM after 60 mins by agarose gel electrophoresis
HeLa [3] = assay: Antiproliferative activity against human HeLa cells incubated for 1 hr with inhibitor followed by UV irradiation measured after 24 hrs by trypan blue dye assay; assay type: functional, cell-based; details: light or radiation study
HeLa [4] = assay: Antiproliferative activity against human HeLa cells after 24 hrs by trypan blue dye assay; assay type: functional, cell-based
A-431 [5] = assay: Antiproliferative activity against human A431 cells incubated for 1 hr with inhibitor followed by UV irradiation measured after 24 hrs by trypan blue dye assay; assay type: functional, cell-based; details: A-431, light or radiation study
A-431 [6] = assay: Antiproliferative activity against human A431 cells after 24 hrs by trypan blue dye assay; assay type: functional, cell-based; details: A-431, 24 h
HeLa [7] = assay: Ratio of IC50 for 8-MOP to compound IC50 for human HeLa cells incubated for 1 hr with inhibitor followed by UV irradiation measured after 24 hrs by trypan blue dye assay; assay type: functional
A-431 [8] = assay: Ratio of IC50 for 8-MOP to compound IC50 for human A431 cells incubated for 1 hr with inhibitor followed by UV irradiation measured after 24 hrs by trypan blue dye assay; assay type: functional
Nucleic Acid [9] = assay: Binding affinity to salmon testes DNA assessed as change in linear dichroism at compound to DNA ratio of 0.02 to 0.08 by circular dichroism analysis; assay type: nucleic-acid assay; details: Salmonidae
[10] = biological target: DNA topoisomerase 2-alpha (Homo sapiens) (UniProt P11388); assay: Inhibition of human recombinant topoisomerase 2alpha-mediated pBR322 DNA relaxation after 60 mins by agarose gel electrophoretic analysis
[11] = biological target: DNA topoisomerase 2-alpha (Homo sapiens) (UniProt P11388); assay: Inhibition of human recombinant topoisomerase 2alpha-mediated pBR322 DNA relaxation at 5 uM after 60 mins by agarose gel electrophoretic analysis
[12] = biological target: DNA topoisomerase 2-alpha (Homo sapiens) (UniProt P11388); assay: Inhibition of human recombinant topoisomerase 2alpha-mediated pBR322 DNA relaxation at 10 uM after 60 mins by agarose gel electrophoretic analysis
[13] = biological target: DNA topoisomerase 2-alpha (Homo sapiens) (UniProt P11388); assay: Inhibition of human recombinant topoisomerase 2alpha-mediated pBR322 DNA complex formation at 10 uM after 60 mins by agarose gel electrophoresis
Nucleic Acid [14] = assay: Photoaddition to salmon testes DNA assessed as thymine-photoadduct formation by UV-Vis spectrophotometric analysis; assay type: nucleic-acid assay; details: Salmonidae

Sequence of DNA topoisomerase 2-alpha (Homo sapiens) (P11388 whole entry): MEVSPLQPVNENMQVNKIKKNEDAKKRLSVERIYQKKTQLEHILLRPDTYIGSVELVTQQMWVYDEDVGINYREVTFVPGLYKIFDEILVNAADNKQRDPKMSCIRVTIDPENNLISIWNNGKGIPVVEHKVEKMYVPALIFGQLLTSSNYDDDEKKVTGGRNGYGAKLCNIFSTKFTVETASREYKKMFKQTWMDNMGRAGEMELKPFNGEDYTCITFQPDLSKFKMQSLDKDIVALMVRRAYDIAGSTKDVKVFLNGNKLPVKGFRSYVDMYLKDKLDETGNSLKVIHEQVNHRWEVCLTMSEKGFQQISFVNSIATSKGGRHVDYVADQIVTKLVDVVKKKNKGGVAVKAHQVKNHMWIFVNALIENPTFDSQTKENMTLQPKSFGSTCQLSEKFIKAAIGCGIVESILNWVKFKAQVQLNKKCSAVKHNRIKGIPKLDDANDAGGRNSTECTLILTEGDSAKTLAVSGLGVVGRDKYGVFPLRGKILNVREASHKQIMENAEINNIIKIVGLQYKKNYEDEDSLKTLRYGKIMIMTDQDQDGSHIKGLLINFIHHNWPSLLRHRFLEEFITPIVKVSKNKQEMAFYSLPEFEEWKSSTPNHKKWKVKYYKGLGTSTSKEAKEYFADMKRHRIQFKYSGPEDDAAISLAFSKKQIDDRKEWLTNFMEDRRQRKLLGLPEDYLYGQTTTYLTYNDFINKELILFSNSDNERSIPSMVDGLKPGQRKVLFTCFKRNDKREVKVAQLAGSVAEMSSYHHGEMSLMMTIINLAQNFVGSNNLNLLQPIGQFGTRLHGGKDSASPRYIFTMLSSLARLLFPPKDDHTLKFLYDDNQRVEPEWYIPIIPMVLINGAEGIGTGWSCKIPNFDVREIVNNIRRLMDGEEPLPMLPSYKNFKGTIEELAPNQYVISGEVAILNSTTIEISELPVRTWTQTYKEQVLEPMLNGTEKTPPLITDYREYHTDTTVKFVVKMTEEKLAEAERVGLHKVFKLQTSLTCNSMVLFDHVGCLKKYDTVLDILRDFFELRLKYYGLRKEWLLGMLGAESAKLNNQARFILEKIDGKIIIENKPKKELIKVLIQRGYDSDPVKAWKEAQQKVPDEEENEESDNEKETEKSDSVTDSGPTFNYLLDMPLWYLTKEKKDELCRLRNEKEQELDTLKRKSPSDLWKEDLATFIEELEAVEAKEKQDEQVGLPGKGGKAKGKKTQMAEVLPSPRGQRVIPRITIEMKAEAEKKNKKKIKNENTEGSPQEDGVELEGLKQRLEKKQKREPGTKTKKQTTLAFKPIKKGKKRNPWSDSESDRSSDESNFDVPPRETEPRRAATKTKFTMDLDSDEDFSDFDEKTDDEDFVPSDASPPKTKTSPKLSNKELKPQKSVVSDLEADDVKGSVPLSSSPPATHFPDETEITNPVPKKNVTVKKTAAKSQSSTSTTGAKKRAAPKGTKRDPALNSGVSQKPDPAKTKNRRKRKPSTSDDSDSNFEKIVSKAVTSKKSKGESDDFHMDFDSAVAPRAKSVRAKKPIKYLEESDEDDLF

| SMILES | inhibition [1] | inhibition [2] | IC50 (HeLa [3]) | IC50 (HeLa [4]) | IC50 (A-431 [5]) | IC50 (A-431 [6]) | Ratio IC50 (HeLa [7]) | Ratio IC50 (A-431 [8]) | Activity (Nucleic Acid [9]) | inhibition [10] | inhibition [11] | inhibition [12] | inhibition [13] | Activity (Nucleic Acid [14]) |
| --- | --- | --- | --- | --- | --- | --- | --- | --- | --- | --- | --- | --- | --- | --- |
| COc1cc(NS(C)(=O)=O)ccc1Nc1c2ccccc2nc2ccccc12 | Active | Active | – | – | – | – | – | – | – | – | – | – | – | – |
| Cc1cc(=O)oc2c1c(OCCCN(C)C)cc1oc3ccccc3c12 | – | – | 1.4 µM | > 20 µM | 4.2 µM | > 20 µM | 5.9 | 5.9 | – | – | – | – | – | – |
| Cc1cc(=O)oc2c1c(OCCCN(C)C)cc1oc3c(c12)CCCC3 | – | – | 0.4 µM | 7.2 µM | 2 µM | 6.7 µM | 5.9 | 5.9 | Active | Dose-dependent effect | Active | Active | inactive | Active |
| COc1c2occc2cc2ccc(=O)oc12 [METHOXSALEN] | – | – | – | > 30 µM | 25 µM | > 30 µM | – | – | – | – | – | – | – | – |
